Laboratory results from patent publication US20080051387A1, “TETRAHYDROPYRIDO[3,4-D]PYRIMIDINES AND RELATED ANALOGUES” (priority 2006, published 2008).

What follows are compounds tested against T1, chimeric human H3 receptor (Homo sapiens, UniProt Q9Y5N1) (assay: Chimeric human H3 receptor screening GTP binding assay (inhibition of histamine-stimulated GTP-gamma35S binding, Example 8)). Conditions: 1 h; assay described in Example 8; symbol "!" in column headed Ki; read-out: Ki ("!": percent inhibition of agonist-induced GTP-gammaS binding to H3).
T1 construct: rat Galpha-i2 (Gnai2, rat); made in house; host or cells: Sf9 insect cells (baculovirus); P2 membranes
Assay type: biochemical
Procedure, shortened: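 Sf9 membranes co-expressing chimeric human H3 receptor and heterotrimeric G-protein (35 μg protein) incubated 60 min at room temperature with 4 μM compound, 1 μM histamine and 125 pM GTP-gamma35S in pH 7.4 buffer with 10 μM GDP. Filter-bound radioactivity, nonspecific (10 μM GTP-gammaS) subtracted, reported as % inhibition of histamine signal.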

T1 sequence (Q9Y5N1 with tags, fused parts or gaps): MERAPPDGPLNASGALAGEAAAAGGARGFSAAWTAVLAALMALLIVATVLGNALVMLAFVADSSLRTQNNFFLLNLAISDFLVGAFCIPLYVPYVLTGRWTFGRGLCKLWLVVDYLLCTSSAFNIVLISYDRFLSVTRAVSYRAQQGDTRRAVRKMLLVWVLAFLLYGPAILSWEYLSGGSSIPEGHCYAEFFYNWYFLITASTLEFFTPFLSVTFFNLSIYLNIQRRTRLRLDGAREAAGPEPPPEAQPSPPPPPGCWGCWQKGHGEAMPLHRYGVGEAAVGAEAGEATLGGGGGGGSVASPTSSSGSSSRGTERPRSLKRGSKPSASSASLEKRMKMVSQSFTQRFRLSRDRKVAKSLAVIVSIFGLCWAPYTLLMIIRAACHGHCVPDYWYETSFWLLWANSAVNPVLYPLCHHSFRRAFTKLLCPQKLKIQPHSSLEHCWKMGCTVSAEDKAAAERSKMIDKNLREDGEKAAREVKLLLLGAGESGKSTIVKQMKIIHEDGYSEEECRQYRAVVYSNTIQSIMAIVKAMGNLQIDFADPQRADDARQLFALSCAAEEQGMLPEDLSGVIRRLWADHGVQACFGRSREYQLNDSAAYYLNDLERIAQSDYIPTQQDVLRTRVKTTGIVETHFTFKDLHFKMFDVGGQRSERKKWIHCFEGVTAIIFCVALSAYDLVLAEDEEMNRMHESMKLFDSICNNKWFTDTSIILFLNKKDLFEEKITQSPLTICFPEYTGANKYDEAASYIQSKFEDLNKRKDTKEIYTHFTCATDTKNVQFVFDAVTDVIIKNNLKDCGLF

inhibition at 4 µM [%] | Structure (SMILES)
≥ 90 | Cc1cc(C(=O)N2CCc3cnc(N4CCN(C5CCC5)CC4)nc3CC2)cc(Cl)n1 [Compound 484, 7-(2-chloro-6-methylisonicotinoyl)-2-(4-cyclobutylpiperazin-1-yl)-6,7,8,9-tetrahydro-5H-pyrimido[4,5-d]azepine]
≥ 90 | COc1cc(C(=O)N2CCc3cnc(N4CCN(C5CCC5)CC4)nc3CC2)cc(Cl)n1 [Compound 485, 7-(2-chloro-6-methoxyisonicotinoyl)-2-(4-cyclobutylpiperazin-1-yl)-6,7,8,9-tetrahydro-5H-pyrimido[4,5-d]azepine]
≥ 90 | Cc1cnc(C(=O)N2CCc3cnc(N4CCN(C5CCC5)CC4)nc3CC2)cn1 [Compound 486, 2-(4-cyclobutylpiperazin-1-yl)-7-[(5-methylpyrazin-2-yl)carbonyl]-6,7,8,9-tetrahydro-5H-pyrimido[4,5-d]azepine]
≥ 90 | O=C(c1ccncc1)N1CCc2cnc(N3CCN(C4CCC4)CC3)nc2CC1 [Compound 487, 2-(4-cyclobutylpiperazin-1-yl)-7-isonicotinoyl-6,7,8,9-tetrahydro-5H-pyrimido[4,5-d]azepine]
≥ 90 | O=C(c1cc(-c2ccccc2)nc2ccccc12)N1CCc2cnc(N3CCN(C4CCC4)CC3)nc2CC1 [Compound 488, 2-(4-cyclobutylpiperazin-1-yl)-7-[(2-phenylquinolin-4-yl)carbonyl]-6,7,8,9-tetrahydro-5H-pyrimido[4,5-d]azepine]
≥ 90 | CCCCc1ccc(C(=O)N2CCc3cnc(N4CCN(C5CCC5)CC4)nc3CC2)nc1 [Compound 489, 7-[(5-butylpyridin-2-yl)carbonyl]-2-(4-cyclobutylpiperazin-1-yl)-6,7,8,9-tetrahydro-5H-pyrimido[4,5-d]azepine]
≥ 90 | COc1cc(C(=O)N2CCc3cnc(N4CCN(C5CCC5)CC4)nc3CC2)nc2ccccc12 [Compound 490, 2-(4-cyclobutylpiperazin-1-yl)-7-[(4-methoxyquinolin-2-yl)carbonyl]-6,7,8,9-tetrahydro-5H-pyrimido[4,5-d]azepine]
≥ 90 | O=C(c1cc(Cl)nc(Cl)c1)N1CCc2cnc(N3CCN(C4CCC4)CC3)nc2CC1 [Compound 491, 2-(4-cyclobutylpiperazin-1-yl)-7-(2,6-dichloroisonicotinoyl)-6,7,8,9-tetrahydro-5H-pyrimido[4,5-d]azepine]
≥ 90 | O=C(c1ccnc2ccccc12)N1CCc2cnc(N3CCN(C4CCC4)CC3)nc2CC1 [Compound 492, 2-(4-cyclobutylpiperazin-1-yl)-7-(quinolin-4-ylcarbonyl)-6,7,8,9-tetrahydro-5H-pyrimido[4,5-d]azepine]
≥ 90 | O=C(c1cccnc1Sc1ccc(Cl)cc1)N1CCc2cnc(N3CCN(C4CCC4)CC3)nc2CC1 [Compound 493, 7-({2-[(4-chlorophenyl)thio]pyridin-3-yl}carbonyl)-2-(4-cyclobutylpiperazin-1-yl)-6,7,8,9-tetrahydro-5H-pyrimido[4,5-d]azepine]
≥ 90 | CC(C)(C)c1ccc(Oc2ncccc2C(=O)N2CCc3cnc(N4CCN(C5CCC5)CC4)nc3CC2)cc1 [Compound 494, 7-{[2-(4-tert-butylphenoxy)pyridin-3-yl]carbonyl}-2-(4-cyclobutylpiperazin-1-yl)-6,7,8,9-tetrahydro-5H-pyrimido[4,5-d]azepine]
≥ 90 | O=C(c1cccnc1Oc1ccccc1)N1CCc2cnc(N3CCN(C4CCC4)CC3)nc2CC1 [Compound 495, 2-(4-cyclobutylpiperazin-1-yl)-7-[(2-phenoxypyridin-3-yl)carbonyl]-6,7,8,9-tetrahydro-5H-pyrimido[4,5-d]azepine]
≥ 90 | O=C(c1cccnc1Sc1ccccc1)N1CCc2cnc(N3CCN(C4CCC4)CC3)nc2CC1 [Compound 496, 2-(4-cyclobutylpiperazin-1-yl)-7-{[2-(phenylthio)pyridin-3-yl]carbonyl}-6,7,8,9-tetrahydro-5H-pyrimido[4,5-d]azepine]
≥ 90 | O=C(c1cccnc1Oc1ccc(Cl)cc1)N1CCc2cnc(N3CCN(C4CCC4)CC3)nc2CC1 [Compound 497]
≥ 90 | COc1ncccc1C(=O)N1CCc2cnc(N3CCN(C4CCC4)CC3)nc2CC1 [Compound 498, 2-(4-cyclobutylpiperazin-1-yl)-7-[(2-methoxypyridin-3-yl)carbonyl]-6,7,8,9-tetrahydro-5H-pyrimido[4,5-d]azepine]
≥ 90 | C=CCSc1ncccc1C(=O)N1CCc2cnc(N3CCN(C4CCC4)CC3)nc2CC1 [Compound 499, 7-{[2-(allythio)pyridin-3-yl]carbonyl}-2-(4-cyclobutylpiperazin-1-yl)-6,7,8,9-tetrahydro-5H-pyrimido[4,5-d]azepine]

Continued, compound first:

Structure (SMILES) | inhibition at 4 µM [%]
Cc1cc(C(=O)N2CCc3cnc(N4CCN(C5CCC5)CC4)nc3CC2)oc1C [Compound 468, 2-(4-cyclobutylpiperazin-1-yl)-7-(4,5-dimethyl-2-furoyl)-6,7,8,9-tetrahydro-5H-pyrimido[4,5-d]azepine] | ≥ 90
Cc1oc(-c2ccccc2)cc1C(=O)N1CCc2cnc(N3CCN(C4CCC4)CC3)nc2CC1 [Compound 469, 2-(4-cyclobutylpiperazin-1-yl)-7-(2-methyl-5-phenyl-3-furoyl)-6,7,8,9-tetrahydro-5H-pyrimido[4,5-d]azepine] | ≥ 90
O=C(c1cc(-c2ccc(Cl)cc2)oc1C(F)(F)F)N1CCc2cnc(N3CCN(C4CCC4)CC3)nc2CC1 [Compound 470, 7-[5-(4-chlorophenyl)-2-(trifluoromethyl)-3-furoyl]-2-(4-cyclobutylpiperazin-1-yl)-6,7,8,9-tetrahydro-5H-pyrimido[4,5-d]azepine] | ≥ 90
Cc1oc(-c2ccc(Cl)cc2)cc1C(=O)N1CCc2cnc(N3CCN(C4CCC4)CC3)nc2CC1 [Compound 471, 7-[5-(4-chlorophenyl)-2-methyl-3-furoyl]-2-(4-cyclobutylpiperazin-1-yl)-6,7,8,9-tetrahydro-5H-pyrimido[4,5-d]azepine] | ≥ 90
O=C(c1ccc(Oc2cc(Cl)cc(Cl)c2)o1)N1CCc2cnc(N3CCN(C4CCC4)CC3)nc2CC1 [Compound 472, 2-(4-cyclobutylpiperazin-1-yl)-7-[5-(3,5-dichlorophenoxy)-2-furoyl]-6,7,8,9-tetrahydro-5H-pyrimido[4,5-d]azepine] | ≥ 90
O=C(c1cc2ccccc2o1)N1CCc2cnc(N3CCN(C4CCC4)CC3)nc2CC1 [Compound 473, 7-(1-benzofuran-2-ylcarbonyl)-2-(4-cyclobutylpiperazin-1-yl)-6,7,8,9-tetrahydro-5H-pyrimido[4,5-d]azepine] | ≥ 90
O=C(c1ccc(OCC(F)(F)F)nc1)N1CCc2cnc(N3CCN(C4CCC4)CC3)nc2CC1 [Compound 474, 2-(4-cyclobutylpiperazin-1-yl)-7-{[6-(2,2,2-trifluoroethoxy)pyridin-3-yl]carbonyl}-6,7,8,9-tetrahydro-5H-pyrimido[4,5-d]azepine] | ≥ 90
O=C(c1cncc(C#Cc2ccccc2)c1)N1CCc2cnc(N3CCN(C4CCC4)CC3)nc2CC1 [Compound 475, 2-(4-cyclobutylpiperazin-1-yl)-7-{[5-(phenylethynyl)pyridin-3-yl]carbonyl}-6,7,8,9-tetrahydro-5H-pyrimido[4,5-d]azepine] | ≥ 90
O=C(c1cnccc1C(F)(F)F)N1CCc2cnc(N3CCN(C4CCC4)CC3)nc2CC1 [Compound 476, 2-(4-cyclobutylpiperazin-1-yl)-7-{[4-(trifluoromethyl)pyridin-3-yl]carbonyl}-6,7,8,9-tetrahydro-5H-pyrimido[4,5-d]azepine] | ≥ 90
O=C(c1cccnc1Cl)N1CCc2cnc(N3CCN(C4CCC4)CC3)nc2CC1 [Compound 477, 7-[(2-chloropyridin-3-yl)carbonyl]-2-(4-cyclobutylpiperazin-1-yl)-6,7,8,9-tetrahydro-5H-pyrimido[4,5-d]azepine] | ≥ 90
O=C(c1ccc(Cl)nc1)N1CCc2cnc(N3CCN(C4CCC4)CC3)nc2CC1 [Compound 478, 7-[(6-chloropyridin-3-yl)carbonyl]-2-(4-cyclobutylpiperazin-1-yl)-6,7,8,9-tetrahydro-5H-pyrimido[4,5-d]azepine] | ≥ 90
CSc1ncc(Cl)c(C(=O)N2CCc3cnc(N4CCN(C5CCC5)CC4)nc3CC2)n1 [Compound 479, 7-{[5-chloro-2-(methylthio)pyrimidin-4-yl]carbonyl}-2-(4-cyclobutylpiperazin-1-yl)-6,7,8,9-tetrahydro-5H-pyrimido[4,5-d]azepine] | ≥ 90
O=C(c1ccc(-n2cccc2)nc1)N1CCc2cnc(N3CCN(C4CCC4)CC3)nc2CC1 [Compound 480, 2-(4-cyclobutylpiperazin-1-yl)-7-{[6-(1H-pyrrol-1-yl)pyridin-3-yl]carbonyl}-6,7,8,9-tetrahydro-5H-pyrimido[4,5-d]azepine] | ≥ 90
O=C(c1cncc(Br)c1)N1CCc2cnc(N3CCN(C4CCC4)CC3)nc2CC1 [Compound 481, 7-[(5-bromopyridin-3-yl)carbonyl]-2-(4-cyclobutylpiperazin-1-yl)-6,7,8,9-tetrahydro-5H-pyrimido[4,5-d]azepine] | ≥ 90
O=C(c1cnc2ccccc2c1)N1CCc2cnc(N3CCN(C4CCC4)CC3)nc2CC1 [Compound 482, 2-(4-cyclobutylpiperazin-1-yl)-7-(quinolin-3-ylcarbonyl)-6,7,8,9-tetrahydro-5H-pyrimido[4,5-d]azepine] | ≥ 90
O=C(c1ccnc(Cl)c1)N1CCc2cnc(N3CCN(C4CCC4)CC3)nc2CC1 [Compound 483, 7-(2-chloroisonicotinoyl)-2-(4-cyclobutylpiperazin-1-yl)-6,7,8,9-tetrahydro-5H-pyrimido[4,5-d]azepine] | ≥ 90
